Broadly, the Km is the substrate concentration at which the rate is half of its maximum. For orientation: stoichiometry N means a count of units in the complex or per binding partner.

The subject of test [1] is T1, NdasCDO.
T1 construct: gene Ndas1146; both subunits co-expressed from pRSFDuet-1 in E. coli BL21(DE3), nickel HisTrap purified; A monomer 22 kDa, B monomer 11 kDa; filament of alternating A and B homodimers (A2B2 repeat)
Put plainly: UV absorbance, initial rates. Conditions: 50 mM Tris pH 9.0, 200 mM NaCl, 30 °C; O2 as oxidant. The class given is biochemical, Nocardiopsis dassonvillei.

Test [2] addresses NdasCDO subunit A (NdasCDO-A), cyclodipeptide oxidase subunit A from Nocardiopsis dassonvillei (Nocardiopsis dassonvillei) (UniProt D7B1W6). As to the kind of experiment: cryo-EM structure; helical reconstruction of NdasCDO filaments; purified complex dialysed against 20 mM Tris pH 9, 200 mM NaCl, 5 mM DTT, 4 uM on the grid; local refinement with a mask over two dimers of subunit A and two dimers of subunit B.

Test [3] has as its target NdasCDO subunit B (NdasCDO-B), cyclodipeptide oxidase subunit B from Nocardiopsis dassonvillei (Nocardiopsis dassonvillei) (UniProt D7B1W7). The description is as above.

As to `O=C1N[C@@H](Cc2c[nH]c3ccccc23)C(=O)N[C@H]1CO` [cWS], the Km in test [1] amounted to 800 µM.
Turning to “NdasCDO subunit A (NdasCDO-A), cyclodipeptide oxidase subunit A from Nocardiopsis dassonvillei (from UniProt D7B1W6 2-157) (enzyme)”, the stoichiometry N in test [2] is 2.
Molecule “NdasCDO subunit B (NdasCDO-B), cyclodipeptide oxidase subunit B from Nocardiopsis dassonvillei (from UniProt D7B1W7 1-105) (enzyme)” yielded a stoichiometry N in test [3] of 2.
Regarding `O=C1CNC(=O)[C@H](Cc2ccccc2)N1` [cFG], the Km in test [1] was found to be 4200 µM.
Regarding `O=C1N[C@@H](Cc2c[nH]c3ccccc23)C(=O)N[C@H]1Cc1ccccc1` [cWF], in test [1], the Km is 80 µM.

For the origin of these results see publication PMC11760959, “Broad substrate scope C-C oxidation in cyclodipeptides catalysed by a flavin-dependent filament” (Nature Communications, 2025).
